Data: ChEMBL document CHEMBL5712883, “RNA polymerase II stalling promotes nucleosome occlusion and pTEFb recruitment to drive immortalization by Epstein-Barr virus” (PLoS Pathog, 2011)
Calls of active or inactive are those of the source.

Columns and labels:
Details in all cases: Mutu-3, dose 50.0 nM, time 48.0 hrs
[1] = molecular target: Bromodomain-containing protein 4 (Homo sapiens) (UniProt O60885)
Description: Inhibition of BRD4 in human Mutu-3 cells assessed as decrease in CDK9 association in +295 cp region at 50 nM incubated for 48 hrs by CHIP analysis

[2] = molecular target: Bromodomain-containing protein 4 (Homo sapiens) (UniProt O60885); remark: listed apart in the source
Description: Inhibition of BRD4 in human Mutu-3 cells assessed as decrease in Cyclin T1 association in -40 cp region at 50 nM incubated for 48 hrs by CHIP analysis

[3] = molecular target: Bromodomain-containing protein 4 (Homo sapiens) (UniProt O60885); remark: listed apart in the source
Description: Inhibition of BRD4 in human Mutu-3 cells assessed as decrease in Brd4 association in -208 cp region at 50 nM incubated for 48 hrs by CHIP analysis

[4] = molecular target: Bromodomain-containing protein 4 (Homo sapiens) (UniProt O60885); remark: listed apart in the source
Description: Inhibition of BRD4 in human Mutu-3 cells assessed as decrease in Cp-initiated EBNA 2 transcription at 50 nM incubated for 48 hrs by Q-PCR analysis relative to control

[5] = molecular target: Bromodomain-containing protein 4 (Homo sapiens) (UniProt O60885); remark: listed apart in the source
Description: Inhibition of BRD4 in human Mutu-3 cells assessed as decrease in Cyclin T1 association in -208 cp region at 50 nM incubated for 48 hrs by CHIP analysis

[6] = molecular target: Bromodomain-containing protein 4 (Homo sapiens) (UniProt O60885); remark: listed apart in the source
Description: Inhibition of BRD4 in human Mutu-3 cells assessed as decrease in Cp-initiated EBNA 1 transcription at 50 nM incubated for 48 hrs by Q-PCR analysis relative to control

[7] = molecular target: Bromodomain-containing protein 4 (Homo sapiens) (UniProt O60885); remark: listed apart in the source
Description: Inhibition of BRD4 in human Mutu-3 cells assessed as decrease in Brd4 association in -40 cp region at 50 nM incubated for 48 hrs by CHIP analysis

[8] = molecular target: Bromodomain-containing protein 4 (Homo sapiens) (UniProt O60885); remark: listed apart in the source
Description: Inhibition of BRD4 in human Mutu-3 cells assessed as decrease in Cyclin T1 association in +295 cp region at 50 nM incubated for 48 hrs by CHIP analysis

[9] = molecular target: Bromodomain-containing protein 4 (Homo sapiens) (UniProt O60885); remark: listed apart in the source
Description: Inhibition of BRD4 in human Mutu-3 cells assessed as decrease in Cp-initiated LMP1 transcription at 50 nM incubated for 48 hrs by Q-PCR analysis relative to control

[10] = molecular target: Bromodomain-containing protein 4 (Homo sapiens) (UniProt O60885); remark: listed apart in the source
Description: Inhibition of BRD4 in human Mutu-3 cells assessed as decrease in Brd4 association in +295 cp region at 50 nM incubated for 48 hrs by CHIP analysis

[11] = molecular target: Bromodomain-containing protein 4 (Homo sapiens) (UniProt O60885); remark: listed apart in the source
Description: Inhibition of BRD4 in human Mutu-3 cells assessed as decrease in CDK9 association in -208 cp region at 50 nM incubated for 48 hrs by CHIP analysis

[12] = molecular target: Bromodomain-containing protein 4 (Homo sapiens) (UniProt O60885); remark: listed apart in the source
Description: Inhibition of BRD4 in human Mutu-3 cells assessed as decrease in Cyclin T1 association in +48 cp region at 50 nM incubated for 48 hrs by CHIP analysis

[13] = molecular target: Bromodomain-containing protein 4 (Homo sapiens) (UniProt O60885); remark: listed apart in the source
Description: Inhibition of BRD4 in human Mutu-3 cells assessed as decrease in CDK9 association in -40 cp region at 50 nM incubated for 48 hrs by CHIP analysis

[14] = molecular target: Bromodomain-containing protein 4 (Homo sapiens) (UniProt O60885); remark: listed apart in the source
Description: Inhibition of BRD4 in human Mutu-3 cells assessed as decrease in CDK9 association in +48 cp region at 50 nM incubated for 48 hrs by CHIP analysis

[15] = molecular target: Bromodomain-containing protein 4 (Homo sapiens) (UniProt O60885); remark: listed apart in the source
Description: Inhibition of BRD4 in human Mutu-3 cells assessed as decrease in Brd4 association in +48 cp region at 50 nM incubated for 48 hrs by CHIP analysis

Measured: inhibition

Cc1sc2c(c1C)C(c1ccc(Cl)cc1)=N[C@@H](CC(=O)OC(C)(C)C)c1nnc(C)n1-2
74%: [4]
inactive: [9]
65%: [6]
active: all other assays above
